In patent US20100056563A1, “NOVEL 1.8-NAPHTHYRIDINE COMPOUNDS” (priority 2007, published 2010):

Molecular target: T1, FLAG-tagged full length PHD2 (Homo sapiens, UniProt Q9GZT9)
T1 construct: FLAG-tagged full length PHD2; FLAG; made in house; host or cells: baculovirus-infected Sf9 cells
Assay: HIF-PHD2 time resolved fluorescence inhibition assay (HIF-1α peptide hydroxylation, VHL complex detection)
Format: biochemical
Conditions: 0.2 μM 2-oxoglutarate, 0.5 μM HIF-1α peptide, 2 hr at room temperature
Protocol: To each well of a 96-well plate was added […] of test compound in DMSO and 20 μl of assay buffer (50 mM Tris pH 7.4/0.01% Tween-20/0.1 mg/ml bovine serum albumin/10 μM ferrous sulfate/1 mM sodium ascorbate/20 μg/ml catalase) containing 0.15 μg/ml FLAG-tagged full length PHD2 expressed in and purified from baculovirus-infected Sf9 cells. After a […] preincubation at room temperature, the enzymatic reactions were initiated by the addition of 4 μL of substrates (final concentrations of 0.2 μM 2-oxoglutarate and 0.5 μM HIF-1α peptide biotinyl-DLDLEMLAPYIPMDDDFQL). After 2 hr at room temperature, the reactions were terminated and signals were developed by the addition of a 25 μL quench/detection mix to a final concentration of 1 mM ortho-phenanthroline, 0.1 mM EDTA, 0.5 nM anti-(His)6 LANCE reagent (Perkin-Elmer Life Sciences), 100 nM AF647-labeled streptavidin (Invitrogen), and 2 μg/ml (His)6-VHL complex (S. Tan (2001) Protein Expr. Purif. 21, 224-234). The ratio of time resolved fluorescence signals at 665 and 620 nm was determined, and percent inhibition was calculated relative to an uninhibited control sample run in parallel.

T1 sequence (Q9GZT9 whole entry): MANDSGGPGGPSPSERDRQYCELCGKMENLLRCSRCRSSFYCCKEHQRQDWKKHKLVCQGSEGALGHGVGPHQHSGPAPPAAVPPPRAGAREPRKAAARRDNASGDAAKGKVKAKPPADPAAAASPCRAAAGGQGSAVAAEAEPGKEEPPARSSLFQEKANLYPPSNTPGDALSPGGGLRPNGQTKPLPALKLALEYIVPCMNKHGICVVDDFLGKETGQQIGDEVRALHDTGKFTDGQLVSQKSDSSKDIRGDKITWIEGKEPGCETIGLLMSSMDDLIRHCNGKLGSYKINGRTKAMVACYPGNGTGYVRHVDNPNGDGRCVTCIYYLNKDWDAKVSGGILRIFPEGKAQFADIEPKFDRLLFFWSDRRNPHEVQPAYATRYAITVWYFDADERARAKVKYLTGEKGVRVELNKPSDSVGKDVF

## O=C(O)CNC(=O)c1c(O)c2cc(Cl)cnc2n(Cc2nc3ccccc3s2)c1=O [Example 40, ({[1-(1,3-Benzothiazol-2-ylmethyl)-6-chloro-4-hydroxy-2-oxo-1,2-dihydro-1,8-naphthyridin-3-yl]carbonyl}amino)acetic acid]
  IC50: 1.5 nM
